Data from patent US10463666B2, “Pharmaceutical composition comprising progestogens and/or estrogens and 5-methyl-(6S)-tetrahydrofolate” (MERCK & CIE, priority 2005, dated 2019).

Columns and labels:
[1] = compatibility investigation of binary mixtures with vitamin B12 by DSC; assay type: physicochemical; design: key: ++: good compatibility expected below the stated temperature; +: compatibility below the stated temperature; ++/−: indifferent compatibility, possibly good compatibility below the stated temperature; +/−−: indifferent compatibility, appears to be compatible below the stated temperature; −: (strong) interaction, incompatible; −−−: (strong) interaction, incompatible; details: binary mixture with vitamin B12, DSC, various gases and temperatures
Description: Both vitamin B12 and 5-methyl-(6S)-tetrahydrofolate are unstable in the presence of atmospheric oxygen and humidity. […] Measurements of the incompatibilities between the intended formulation ingredients were carried out by a thermoanalytical method (DSC, differential scanning calorimetry). This allows incompatibilities to be recognized through low enthalpies of fusion and melting temperatures. These are caused for example by a reduced proportion of crystalline substance and the increase in impurities. In the determination, binary mixtures of excipients or active ingredients in each case with vitamin B12 were investigated, and the compatibility was examined under the influence of various gases and temperatures. […]

[2] = cited from earlier work

Molecule	Compatibility [1]	reduction of incidence of neural tube defects ([2]; folic acid fortification of food products, Canada and Chile)	reduction of neural tube defects ([2]; intake at the right time around conception)
C[C@]12CCC(=O)C=C1[C@@H]1C[C@@H]1[C@H]1[C@@H]3[C@@H]4C[C@@H]4[C@@]4(CCC(=O)O4)[C@@]3(C)CC[C@@H]12 [Drospirenone]	+	–	–
OC[C@H]1O[C@@H](O[C@H]2[C@H](O)[C@@H](O)C(O)O[C@@H]2CO)[C@H](O)[C@@H](O)[C@H]1O (some centres unmarked) [Lactose]	+	–	–
Nc1nc2ncc(CNc3ccc(C(=O)N[C@@H](CCC(=O)O)C(=O)O)cc3)nc2c(=O)[nH]1 [folic acid]	–	more than 50%	50-70%
Magnesium stearate	++/−	–	–
